Reference: patent US12357632B2, “Methods of treating cholangiocarcinoma” (QED Therapeutics, Inc., priority 2019, dated 2025)
Entries after “also recorded” stand apart in the source; their conditions may differ.

Columns and labels:
[1] = tested on: advanced or metastatic cholangiocarcinoma with FGFR genetic alterations; test: Phase II study of oral BGJ398 in advanced or metastatic cholangiocarcinoma, Patient 5010004 (RECIST v1.1); assay type: in vivo, human
Method: This is a multi-center, open label, single arm phase II study evaluating BGJ398 anti-tumor activity in advanced or metastatic cholangiocarcinoma patients with FGFR genetic alterations. 125 mg of oral, monotherapy BGJ398 is administered once daily for the first 3 weeks (21 days) of each 28-day cycle. The starting dose of 125 mg may be reduced to 100 mg, 75 mg, or 50 mg. The treatment period begins on Cycle 1, Day 1, and continues until disease progression, unacceptable toxicity, withdrawal of informed consent, or death. Patients are evaluated for tumor response radiographically every 8 weeks until disease progression or discontinuation from study using RECIST v1.1 criteria.
Adult patients with histologically or cytologically confirmed advanced or metastatic cholangiocarcinoma with FGFR2 gene fusions or translocations or other FGFR genetic alteration who have evidence of radiologic progression following a cisplatin- and gemcitabine-containing regimen for advanced disease or a gemcitabine-containing regimen for those who are considered intolerant to cisplatin are enrolled. Up to approximately 160 adult patients over age 18, both male and female are enrolled. Three cohorts of patients comprise the study population: • Cohort 1: ˜120 patients, 108 with FGFR2 gene fusions or translocations and 12 with other FGFR genetic alterations. • Cohort 2: ˜20 patients with FGFR genetic alterations other than FGFR2 gene fusions or translocations. • Cohort 3: Up to ˜20 patients with FGFR2 gene fusions or translocations who have received a prior FGFR inhibitor. Main Inclusion Criteria
Tumor response according to RECIST v1.1, and survival.
During treatment with infigratinib, the patient's response was determined by follow-up assessments conducted by a local investigator per RECIST v1.1.

[2] = Tolerability (body weight, clinical observations) in Vex-MR086M1 xenograft study; assay type: in vivo, Mouse (Mus musculus)
Method: All animals were weighed at the same time as tumor size measurement. A Relative Body Weight loss (RBW loss) was considered as adverse effect of the treatment.
Mice were observed every day for physical appearance, behavior and clinical changes.
Relative Body Weight (RBW) is calculated for each measurement by dividing the body weight by the body weight at the start of treatment.
Individual Body weight loss percent (% BWL)=100−(BWX/BW0×100), where BWX is the BW at any day during the treatment and BW0 is the BW on the day of inclusion.
Mean Body weight loss percent (% BWL)=100−(mean BWX/mean BW0×100), where BWX is the mean BW at any day during the treatment and BW0 is the mean BW on the day of inclusion.

[3] = infigratinib 50 mg/kg PO qdx21, on D18

CCN1CCN(c2ccc(Nc3cc(N(C)C(=O)Nc4c(Cl)c(OC)cc(OC)c4Cl)ncn3)cc2)CC1 [Infigratinib, 3-(2,6-dichloro-3,5-dimethoxyphenyl)-1-{6-[4-(4-ethyl-1-piperazin-1-yl)phenylamino]-pyrimidinyl-4-yl}-1-methylurea]
New Lesion ([1]; Patient 5010004, Study Day 54): No
Non-Target Lesion Response ([1]; Patient 5010004, Study Day 54): Non-CR^1/Non-PD^2
Overall Response ([1]; Patient 5010004, Study Day 54): Stable disease
Target Lesion % Change from Baseline ([1]; Patient 5010004, Study Day 54): 18.33%
New Lesion ([1]; Patient 5010004, Study Day 83): No
Non-Target Lesion Response ([1]; Patient 5010004, Study Day 83): Non-CR/Non-PD
Overall Response ([1]; Patient 5010004, Study Day 83): Stable disease
Target Lesion % Change from Baseline ([1]; Patient 5010004, Study Day 83): 16.33%
New Lesion ([1]; Patient 5010004, Study Day 110): No
Non-Target Lesion Response ([1]; Patient 5010004, Study Day 110): Non-CR/Non-PD
Overall Response ([1]; Patient 5010004, Study Day 110): Stable disease
Target Lesion % Change from Baseline ([1]; Patient 5010004, Study Day 110): 16.33%
New Lesion ([1]; Patient 5010004, Study Day 153): No
Non-Target Lesion Response ([1]; Patient 5010004, Study Day 153): Progressive
Overall Response ([1]; Patient 5010004, Study Day 153): Progressive
Target Lesion % Change from Baseline ([1]; Patient 5010004, Study Day 153): 31.63%
duration of stable disease ([1]; Patient 5010004, first 3 follow-up assessments, local investigator, RECIST v1.1): at least 4 months
time to discontinuation for progressive disease ([1]; Patient 5010004, study treatment): approximately 5 months
clinical observations ([2]; infigratinib 30 mg/kg PO qdx21): All mice had hollow at the level of sternum from D13 to D21
tolerability ([2]; infigratinib 30 mg/kg PO qdx21): well tolerated
maximum individual body weight loss ([2]; infigratinib 30 mg/kg PO qdx21, on D18): 8.6%
mean body weight loss ([2]; infigratinib 30 mg/kg PO qdx21, on D21): 2.1%
clinical observations ([2]; infigratinib 50 mg/kg PO qdx21): All mice had hollow at the level of sternum from D11 or D13 to D21
mice sacrificed due to BWL≥15% during 48 hours ([2]; infigratinib 50 mg/kg PO qdx21): one mouse was sacrificed
relative body weight compared to the vehicle control group ([2]; infigratinib 50 mg/kg PO qdx21, each timepoint): not significantly different
maximum individual body weight loss [2, 3]: 19.8%
mean body weight loss [2, 3]: 10.3%
tolerability ([2]; infigratinib 50 mg/kg PO qdx21, listed as infigratinib): tolerated; also recorded: slight and progressive BWL
